# Measurements: US20210309619A1, “ISOXAZOLIN-5-ONE DERIVATIVES AND HERBICIDES CONTAINING THE SAME AS ACTIVE INGREDIENTS” (HOKKO CHEMICAL INDUSTRY CO., LTD., priority 2018, published 2021)
# Columns and labels:
# Format in all cases: in vivo
# Amaranthus viridis [1] = experiment: Herbicidal effect test by treatment of stem and leaf in dry field farming (Test Example 4); conditions: 120 g/10 a, stem and leaf treatment seven days after seeding, 14 days after treatment
# Excerpt: (§1) Herbicidal Rate (%)={1−(Average Dry Weight (g) of Plant of Treated Area)/(Average Dry Weight (g) of Plant of Untreated Area)}×100 [Math. 1] Pots with a size of 36 cm^2 were filled with a dry field farming soil (alluvium). The soil of the top layer of 1 cm and seeds of weeds, namely southern crabgrass, Echinochloa crus-galli, Chenopodium album and Amaranthus viridis, 20 seeds each, were evenly mixed, and the top layer was gently pressed. Emulsions prepared using the compounds in Table 6 below according to Formulation Example 5 were diluted with water seven days after seeding, and the water-diluted agent solutions were sprayed to the soil surfaces at a ratio of 100 liters per 10 ares. A converted amount of the applied active ingredient corresponded to 120 g per 10 ares. The herbicidal effects were evaluated by the same standard as that in Test Example 1, 14 days after the treatment with the agents. In this regard, the compound numbers in Table 6 are the same as those in Table 1 and Table 2 above.
# Echinochloa crus-galli [2] = experiment: as above; conditions: 120 g/10 a, stem and leaf treatment seven days after seeding, 14 days after treatment
# Excerpt: as §1
# southern crabgrass [3] = experiment: as above; conditions: 120 g/10 a, stem and leaf treatment seven days after seeding, 14 days after treatment
# Excerpt: as §1
# Chenopodium album [4] = experiment: as above; conditions: 120 g/10 a, stem and leaf treatment seven days after seeding, 14 days after treatment
# Excerpt: as §1
# Scirpus juncoides [5] = experiment: Herbicidal effect test by treatment during growing period in paddy rice cultivation (Test Example 2); conditions: 120 g/10 a, treated seven days after seeding, 14 days after treatment
# Excerpt: (§2) Herbicidal Rate (%)={1−(Average Dry Weight (g) of Plant of Treated Area)/(Average Dry Weight (g) of Plant of Untreated Area)}×100 [Math. 1]
# (§3) Wagner pots with an area of 1/10000 ares were filled with a paddy soil, and a compound fertilizer (N:P:K=17:17:17) was mixed after addition of water, followed by soil puddling. Then, Echinochloa crus-galli, broad leaf weeds (Lindernia pyxidaria and Monochoria vaginalis) and Scirpus juncoides, 30 seeds each, were sown in a depth of 0 to 1 cm. Water was poured immediately after seeding, and the water depth was kept at about 3 cm. A subsequent management was conducted in a glass greenhouse. Emulsions prepared using the compounds in Table 4 below according to Formulation Example 5 were diluted with water seven days after seeding, and a certain amount of the water-diluted agent solutions were dropped. A converted amount of the applied active ingredient corresponded to 120 g per 10 ares. The test was conducted in a double system per one agent solution concentration area, and the herbicidal rates (%) were determined by the equation (Math. 1) 14 days after the treatment with the agents. In this regard, the compound numbers in Table 4 are the same as those in Table 1 and Table 2 above.
# Monochoria vaginalis [6] = experiment: as above; conditions: 120 g/10 a, treated seven days after seeding, 14 days after treatment
# Excerpt: as §2, §3
# Echinochloa crus-galli [7] = experiment: as above; conditions: 120 g/10 a, treated seven days after seeding, 14 days after treatment
# Excerpt: as §2, §3
# Lindernia pyxidaria [8] = experiment: as above; conditions: 120 g/10 a, treated seven days after seeding, 14 days after treatment
# Excerpt: as §2, §3
# Scirpus juncoides [9] = experiment: Herbicidal effect test by treatment of rice paddy soil (Test Example 1); conditions: 120 g/10 a, treated immediately after seeding, 14 days after treatment
# Experimental: (§4) Wagner pots with an area of 1/10000 ares were filled with a paddy soil, and a compound fertilizer (N:P:K=17:17:17) was mixed after water was added, followed by soil puddling. Then, Echinochloa crus-galli, broad leaf weeds (Lindernia pyxidaria and Monochoria vaginalis) and Scirpus juncoides, 30 seeds each, were sown in a depth of 0 to 1 cm. Water was poured immediately after seeding, and the water depth was kept at about 3 cm. A subsequent management was conducted in a glass greenhouse. Immediately after that, emulsions prepared using the compounds in Table 3 below according to Formulation Example 5 were diluted with water, and a certain amount of the water-diluted agent solutions were dropped. A converted amount of the applied active ingredient corresponded to 120 g per 10 ares.
# (§5) This test was conducted in a double system per one agent solution concentration area, and the herbicidal rates (%) were determined by the following equation (Math. 1) 14 days after the treatment with the agents.
# as §2
# Monochoria vaginalis [10] = experiment: as above; conditions: 120 g/10 a, treated immediately after seeding, 14 days after treatment
# Experimental: as §4, §5, §2
# Echinochloa crus-galli [11] = experiment: as above; conditions: 120 g/10 a, treated immediately after seeding, 14 days after treatment
# Experimental: as §4, §5, §2
# Lindernia pyxidaria [12] = experiment: as above; conditions: 120 g/10 a, treated immediately after seeding, 14 days after treatment
# Experimental: as §4, §5, §2
# Amaranthus viridis [13] = experiment: Herbicidal effect test by treatment of dry field farming soil (Test Example 3); conditions: 120 g/10 a, sprayed one day after seeding, 14 days after treatment
# Excerpt: as §1, with “Table 5” for “Table 6”, “water one day” for “water seven days”
# Echinochloa crus-galli [14] = experiment: as above; conditions: 120 g/10 a, sprayed one day after seeding, 14 days after treatment
# Excerpt: as §1, with “Table 5” for “Table 6”, “water one day” for “water seven days”
# southern crabgrass [15] = experiment: as above; conditions: 120 g/10 a, sprayed one day after seeding, 14 days after treatment
# Excerpt: as §1, with “Table 5” for “Table 6”, “water one day” for “water seven days”
# Chenopodium album [16] = experiment: as above; conditions: 120 g/10 a, sprayed one day after seeding, 14 days after treatment
# Excerpt: as §1, with “Table 5” for “Table 6”, “water one day” for “water seven days”
compound,measurement,setting,value
"COC1CCCCC1n1oc(=O)c(Cc2ccccc2N(S(=O)(=O)C(F)(F)F)S(=O)(=O)C(F)(F)F)c1C (stereo not shown) [Compound 351, 1,1,1-trifluoro-N-[2-[[(2-methoxycyclohexyl)-3-methyl-5-oxoisoxazol-4-yl]methyl]phenyl]-N-(trifluoromethylsulfonyl)methanesulfonamide]","Herbicidal rate, Amaranthus viridis",Amaranthus viridis [1],80%
same,"Herbicidal rate, Echinochloa crus-galli",Echinochloa crus-galli [2],90%
same,"Herbicidal rate, southern crabgrass",southern crabgrass [3],80%
same,"Herbicidal rate, Chenopodium album",Chenopodium album [4],80%
same,"Herbicidal rate, Scirpus juncoides",Scirpus juncoides [5],90%
same,"Herbicidal rate, Monochoria vaginalis",Monochoria vaginalis [6],80%
same,"Herbicidal rate, Echinochloa crus-galli",Echinochloa crus-galli [7],100%
same,"Herbicidal rate, Lindernia pyxidaria",Lindernia pyxidaria [8],80%
same,"Herbicidal rate, Scirpus juncoides",Scirpus juncoides [9],90%
same,"Herbicidal rate, Monochoria vaginalis",Monochoria vaginalis [10],100%
same,"Herbicidal rate, Echinochloa crus-galli",Echinochloa crus-galli [11],100%
same,"Herbicidal rate, Lindernia pyxidaria",Lindernia pyxidaria [12],100%
same,"Herbicidal rate, Amaranthus viridis",Amaranthus viridis [13],90%
same,"Herbicidal rate, Echinochloa crus-galli",Echinochloa crus-galli [14],90%
same,"Herbicidal rate, southern crabgrass",southern crabgrass [15],90%
same,"Herbicidal rate, Chenopodium album",Chenopodium album [16],60%
